In PubChem BioAssay AID504313 (Emory University Molecular Libraries Screening Center, 2011):
Active and inactive are the calls of the source. The rule behind the calls is not given here.

Biological target: X-box-binding protein 1 (Homo sapiens) (UniProt P17861)
Experiment: XBP1 reporter suppression in cells – counter-screen, dose response (AID 504313);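 note: CHO cells carrying an XBP1 reporter stimulated with tunicamycin; potency is for inhibition of the tunicamycin-induced reporter signal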
Settings: XBP1 reporter cell assay, percent of control

Row | Compound | IC50
1 | Cc1cccc(C)c1N1CCN(c2ccc3nnc(C(F)(F)F)n3n2)CC1 | > 10 µM (inactive)
2 | Cc1ccc(C(C)C)c(OCC(=O)N/N=C/C2CCCCC2)c1 | inactive
3 | CCOc1cc(S(=O)(=O)Nc2ccccc2CC)ccc1Cl | > 10 µM (inactive)
4 | CCOC(=O)c1cnc(-n2nc(C)cc2C)nc1Nc1ccc(O)cc1 | 1.26 µM
5 | Cc1cc(C(C)(C)C)oc1C(=O)N1CCN(C(=O)c2oc(C(C)(C)C)cc2C)CC1 | > 10 µM (inactive)
6 | CN(C)c1ccc(-c2nc3ccccn3c2/N=C/c2ccc(Br)cc2)cc1 | > 10 µM (inactive)
7 | Cn1cnc([N+](=O)[O-])c1S(=O)(=O)c1ccc(Cl)cc1 | inactive
8 | O=c1[nH]c(=O)n(Cc2ccco2)c2c1C(C(F)(F)F)(C(F)(F)F)N=C(c1ccc(F)cc1)N2 | > 10 µM (inactive)
9 | CCOC(=O)c1cc([N+](=O)[O-])c([N+](=O)[O-])cc1NC(C)=O | inactive
10 | CCc1c(C)sc(NC(=O)CSc2nc3c(c(C(F)(F)F)n2)CCc2ccccc2-3)c1C#N | > 10 µM (inactive)
11 | Cc1nn(Cc2c(Cl)cccc2Cl)c(C)c1NC(=O)c1cc(C(C)C)on1 | > 10 µM (inactive)
12 | O=c1[nH]c(NNC(=S)NC2CCCCC2)nc2c1C1(CCCC1)Cc1ccccc1-2 | > 10 µM (inactive)
13 | CCCCn1c(N2CCC(Cc3ccccc3)CC2)nc2c1c(=O)[nH]c(=O)n2C | > 10 µM (inactive)
14 | Cc1ccc(C(=O)N/C(=C\c2ccc(Br)cc2)c2nc(=S)[nH][nH]2)cc1 | > 10 µM (inactive)
15 | O=C(COc1ccc(Cl)cc1Cl)NCCC1=CCCCC1 | 4.23 µM
16 | Cc1cc(/C=N/n2cnnc2)c(C)n1-c1ccc(OCc2ccc(Cl)cc2Cl)cc1 | 0.35 µM
17 | Cc1ccc(-n2ncc(Br)c(Br)c2=O)cc1 | inactive
18 | CCOc1ccc(C(=O)C(CCC(CN(C)C)C(=O)c2ccc(OCC)cc2)CN(C)C)cc1 (stereo not given) | inactive
19 | C[C@H](NC(=O)c1[nH]cnc1C(=O)Nc1ccc(CNC(=O)OC(C)(C)C)cc1)C(=O)OC(C)(C)C | inactive
20 | N#Cc1nccnc1S(=O)(=O)c1cccs1 | inactive
21 | Cc1ccc(NC(=O)c2ccc(Nc3c([N+](=O)[O-])cc([N+](=O)[O-])cc3[N+](=O)[O-])cc2)cc1 | inactive
22 | O=S1(=O)C=C(Sc2nc3cc(Cl)ccc3o2)c2ccccc21 | 4.42 µM
23 | COc1cc(CNCc2ccccn2)ccc1OCc1ccc(Cl)cc1Cl | > 10 µM (inactive)

Row | Compound | IC50
24 | CCOc1cc(S(=O)(=O)Nc2ccc(CC)cc2)ccc1Cl | inactive
25 | O=[N+]([O-])c1ccc(/C=N/n2c(C3CCCCC3)n[nH]c2=S)cc1 | > 10 µM (inactive)
26 | CC(C)(C)c1ccc(-c2noc(CCC(N)=O)n2)cc1 | < 0.16 µM (inactive)
27 | COc1ccc(NC(=O)/C(Cl)=C(/Cl)S(=O)Cc2ccc(Cl)cc2)cn1 (stereo not given) | 3.27 µM
28 | CCNC(=S)N/N=C/c1cc(Br)cc(Br)c1OC | > 10 µM (inactive)
29 | CCCc1cc(=O)[nH]c(Nc2ccc(N3CCCCC3)cc2)n1 | > 10 µM (inactive)
30 | CCCCCCN1C=CC(=C2C(=O)c3ccccc3C2=O)C=C1 | inactive
31 | Cc1cc(Br)c2c(c1)/C(=C/C(=O)c1cccs1)C(=O)N2 | > 10 µM (inactive)
32 | CCOc1ccc2nc(NC(=O)CSc3nc4c(c(=O)n(C)c(=O)n4C)n3C(C)C)sc2c1 | > 10 µM (inactive)
33 | COc1ccc(CC2(CO)CCN(CC3=Cc4cc(Cl)ccc4OC3)CC2)cc1 | 2.67 µM
34 | CC(=O)/C=C/n1c(=S)oc2ccccc21 | inactive
35 | CC(C)(C)c1cc(-c2csc(Nc3ccccc3)[n+]2Cc2ccc(C(=O)O)cc2)cc(C(C)(C)C)c1O | inactive
36 | Cc1cc(Cl)ccc1OCc1n[nH]c(=S)n1C1CCCCC1 | inactive
37 | CCOc1ccc(N(CC(=O)Nc2cccc(Cl)c2)S(=O)(=O)c2c(C)noc2C)cc1 | inactive
38 | Cc1ccc(-c2nc(-c3ccccn3)no2)cc1 | inactive
39 | Cc1ccc2sc(N(CCCN(C)C)C(=O)c3nc4ccccc4s3)nc2c1C | inactive
40 | CS(=O)(=O)c1ncc(Cl)c(C(=O)Nc2ccc(N3CCOCC3)cc2)n1 | inactive
41 | Cc1ccc(/C=N/N2C(=S)SC(C)(C)C2N(O)C(=O)Nc2ccc([N+](=O)[O-])cc2)cc1 (stereo not given) | 3.54 µM
42 | CC1(c2ccccc2)CC(C)(C)n2c(O)c(C3=NC(=S)NC3=O)c3cccc1c32 (stereo not given) | > 10 µM (inactive)
43 | O=C(OCn1ncc(Cl)c(Cl)c1=O)c1ccc(F)cc1 | 3.7 µM
44 | CC(C)C[C@H](NC(=O)c1[nH]cnc1C(=O)N[C@@H](C)C(=O)OC(C)(C)C)C(=O)OC(C)(C)C | 2.71 µM
45 | Cc1ccc(-c2nc(C(Cl)Cl)c3ccccc3n2)cc1 | 5.22 µM
46 | OC1(c2cccc(C(F)(F)F)c2)CCN(c2ncnc3c2[nH]c2ccc(F)cc23)CC1 | 3.86 µM

Row | Compound | IC50
47 | CS(=O)(=O)c1nc(-c2ccco2)cc(C(F)(F)F)n1 | inactive
48 | S=C(NCCc1ccc(Cl)cc1)Nc1ccc(Cl)cc1Cl | > 10 µM (inactive)
49 | CC(C)CCSc1nc2c(c(=O)[nH]c(=O)n2C)n1CCCc1ccccc1 | > 10 µM (inactive)
50 | Cc1cc(C)cc(NC(=O)/C(C#N)=C/c2cn(CC(=O)NCc3ccco3)c3ccccc23)c1 | 4.94 µM
51 | COC(=O)c1ccc2c(c1)C(C)(C)C(/C=C/c1ccc(OC)c(OC)c1OC)=[N+]2C | inactive
52 | O=C(Nc1ccc(Br)c(C(F)(F)F)c1)c1ccc(C(F)(F)F)cc1 | 5.44 µM
53 | O/N=C(\c1ccc(Cl)cc1Cl)c1ncc(C(F)(F)F)cc1Cl | 6.07 µM
54 | O=C(O)CSCC(=O)Nc1ccc(C2CCCCC2)cc1 | inactive
55 | COc1ccc(/C=N\NC(=O)COc2ccc(C(C)(C)C)cc2)cc1Cn1nc(C)cc1C | inactive
56 | O=C1C(Nc2ccc(O)cc2)=C/C(=N/S(=O)(=O)c2cccs2)c2ccccc21 | 1.21 µM
57 | Nc1nnnn1/N=C/C(Br)=C/c1ccccc1 | > 10 µM (inactive)
58 | O=C(OCn1ncc(Cl)c(Cl)c1=O)c1cccc(C(F)(F)F)c1 | inactive
59 | CCN1/C(=C/C=C/C=C/c2sc3ccccc3[n+]2CC)Sc2ccccc21 | 2.4 µM
60 | CCc1ccc(-c2nc(CSCC(=O)NCc3ccco3)c(C)o2)cc1 | < 0.16 µM
61 | C=CCn1c(C)cc(C2=NNC(=NCC)SC2)c1C | < 0.16 µM (inactive)
62 | CCOC(=O)N=Nc1c2ccccc2c2nc3no[nH]c3nc12 | inactive
63 | CC1CN(S(=O)(=O)c2ccc(C(=O)Nc3nc(-c4cc5ccccc5o4)cs3)cc2)CC(C)O1 (stereo not given) | > 10 µM (inactive)
64 | CCCCCCCCNC(C)C(O)c1ccc(SC(C)C)cc1 (stereo not given) | 4.76 µM
65 | COc1cc(/C=C2\CC/C(=C\c3cc(OC)c(O)c(OC)c3)C2=O)cc(OC)c1O | inactive
66 | C#CC(=O)N(c1ccc(OC)c(OC)c1)C(C(=O)NC1CCCC1)c1cccs1 (stereo not given) | inactive
67 | CN1CCc2c(sc(NC(=O)c3cc4cc([N+](=O)[O-])ccc4s3)c2C(N)=O)C1 | > 10 µM (inactive)
68 | C/C=C/Cn1c(SCCCc2ccccc2)nc2c1c(=O)[nH]c(=O)n2C | > 10 µM (inactive)
69 | CC(C)(C)c1ccc(OCC(=O)N/N=C/C2CC=CCC2)cc1 (stereo not given) | inactive

The remaining lines, values ahead:

Row | IC50 | Compound
70 | > 10 µM (inactive) | O=C(On1c(-c2ccccc2)nc2ccccc2c1=O)c1ccco1
71 | inactive | O=C(CCl)Nc1cc(-c2ccccc2)nn1-c1ccccc1
72 | 3.44 µM | O=S(=O)(C/C(=C/CO)S(=O)(=O)c1ccccc1)c1ccccc1
73 | > 10 µM (inactive) | COc1cc(OC)cc(-c2nc3ccccc3c(=O)n2OC(=O)c2ccc(Br)cc2)c1
74 | inactive | CN1C(=O)/C(=C/c2cc(N=Nc3ccccc3)ccc2O)SC1=S
75 | inactive | Cc1cc(C)n(-c2nc(N(c3ccccc3)c3ccccc3)nc(-n3nc(C)cc3C)n2)n1
76 | > 10 µM (inactive) | O=C1C=CC(=O)N1N(c1ccccc1)c1ccccc1
77 | inactive | Cc1ccccc1CS(=O)(=O)c1nnc([C@H](Cc2ccccc2)NC(=O)OC(C)(C)C)o1
78 | > 10 µM (inactive) | COc1ccc(CNc2oc(-c3cccc4ccccc34)nc2C#N)cc1
79 | > 10 µM (inactive) | O=C(CCl)Nc1cn(-c2ccccc2)nc1-c1ccc(F)cc1
80 | inactive | COC(=O)c1ccccc1NC1=C/C(=N\S(=O)(=O)c2cccs2)c2ccccc2C1=O
81 | 1.2 µM | CC(C)(C)C(=O)Nc1ccc(-c2nc3ccccc3c(=O)o2)cc1
82 | inactive | O=c1c(Cl)c(Cl)cnn1-c1ccccc1
83 | inactive | CS(=O)(=O)c1ccc(S(=O)CC(=O)OCc2ccccc2)c([N+](=O)[O-])c1 (stereo not given)
84 | 3.3 µM | Cc1nn(-c2ccccc2)c(Cl)c1CN(C(=O)CCl)c1ccc(Cl)cc1
85 | 1.31 µM | Cc1cccc(NC2=C/C(=N/S(=O)(=O)c3cccs3)c3ccccc3C2=O)c1

Row | IC50 | Compound
86 | > 10 µM (inactive) | Cc1ccc(NC(=O)CSc2nc3ccccc3c3nc(CCc4c(C)n[nH]c4C)nn23)cc1F
87 | 2.28 µM | CN(C)c1ccc(/C=C/c2ccc3c4ccccc4ccc3[n+]2-c2ccccc2)cc1
88 | > 10 µM (inactive) | Cc1ccccc1/C=N/Nc1ccnc2cc(Cl)ccc12
89 | < 0.16 µM (inactive) | CN1CCN(c2ccc(-c3ccc4ccccc4n3)cc2)CC1
90 | inactive | CC[C@@H]1CC=C[C@H]2[C@H]1C(=O)N(Cc1ccccc1)[C@H]2c1ccoc1
91 | inactive | Cc1ccc(C(=O)CC(=O)c2cc(Cl)ccc2O)cc1
92 | > 10 µM (inactive) | NC(=O)CC(NC(=O)Cc1cccc2ccccc12)c1ccc(NCc2ccccc2)c([N+](=O)[O-])c1 (stereo not given)
93 | > 10 µM (inactive) | CCOC(=O)CN1C(c2ccc(O)cc2)Nc2ccc(Br)cc2C1c1ccccc1 (stereo not given)
94 | 3.49 µM | CC(C)CCn1c(=O)c(C(=O)N/N=C/c2cccc(F)c2)c(O)c2ccccc21
95 | > 10 µM (inactive) | Cn1c(=O)[nH]c(=O)c2[nH]c(N(Cc3ccccc3)Cc3ccccc3)nc21
96 | inactive | CCc1ccc(-c2cc(C(=O)N3N=C(C(F)F)CC3(O)C(F)F)c3ccccc3n2)cc1 (stereo not given)
97 | < 0.16 µM | Cc1ccc(/C=C2\SC(=S)N(CCCC(=O)Nc3ccccn3)C2=O)cc1
98 | inactive | CCn1c(=O)c(C(=O)Nc2nc3ccccc3[nH]2)c(O)c2ccccc21
99 | > 10 µM (inactive) | CC(C)NC(=O)c1ccccc1NC(=O)/C=C/c1cccc([N+](=O)[O-])c1
100 | inactive | Cc1ccc(Cl)cc1NC1=C/C(=N\S(=O)(=O)c2cccs2)c2ccccc2C1=O
